Source: ChEMBL document CHEMBL4354839, “Heterobifunctional Molecules Induce Dephosphorylation of Kinases-A Proof of Concept Study” (J Med Chem, 2020)
Blank lines part the entries; values can stand above or below the molecule they belong to. Activity calls are given as the source filed them. The calls are words filed in the database; no cut-off is given here. Residues, ends and D or L forms follow the SMILES beside them. *: point of attachment. X1 = O=C(C*)NCCOCCOCC(=O)Nc1ccc2[nH]c(=O)n(C3CCN(Cc4ccc(-c5nc6cc[nH]c(=O)c6cc5-c5ccccc5)cc4)CC3)c2c1

Key:
[1] = biological target: T1, AKT1/PPP1CA (Homo sapiens) (UniProt P62136+P31749); experiment: Induction of PPI (unknown origin)-mediated pAKT (T308) (unknown origin) dephosphorylation at 0.25 to 10 uM incubated for 1 hr by Western blot analysis; assay type: protein assay
[2] = biological target: T1, AKT1/PPP1CA (Homo sapiens); experiment: Induction of PPI-mediated AKT dephosphorylation in human LnCaP cells at 0.1 to 10 uM incubated for 2 hrs by Western blot analysis; assay type: cell-based
[3] = biological target: T1, AKT1/PPP1CA (Homo sapiens); experiment: Induction of PPI-mediated AKT dephosphorylation in human LnCaP cells assessed as increase in AKT T308 dephosphorylation at 10 uM incubated for 8 hrs by Western blot analysis; assay type: cell-based
[4] = biological target: T1, AKT1/PPP1CA (Homo sapiens); experiment: Induction of PPI-mediated AKT dephosphorylation in human LnCaP cells assessed as increase in AKT S473 dephosphorylation at 10 uM incubated for 8 hrs by Western blot analysis; assay type: cell-based
[5] = biological target: T1, AKT1/PPP1CA (Homo sapiens); experiment: Induction of PPI-mediated AKT dephosphorylation in human LnCaP cells assessed as increase in AKT dephosphorylation at 50 uM incubated for 8 hrs by Western blot analysis; assay type: cell-based
[6] = biological target: T1, AKT1/PPP1CA (Homo sapiens); experiment: Induction of PPI (unknown origin)-mediated pAKT (T308) (unknown origin) dephosphorylation incubated for 1 hr by Western blot analysis; assay type: protein assay
[7] = biological target: T1, AKT1/PPP1CA (Homo sapiens); experiment: Induction of PPI-mediated AKT dephosphorylation in human MCF7/neo HER2 cells assessed as increase in AKT T308dephosphorylation at 10 uM incubated for 8 hrs by Western blot analysis; assay type: cell-based
[8] = biological target: T1, AKT1/PPP1CA (Homo sapiens); experiment: Induction of PPI-mediated AKT dephosphorylation in human MCF7/neo HER2 cells assessed as increase in AKT […] dephosphorylation at 10 uM incubated for 8 hrs by Western blot analysis; assay type: cell-based
[9] = biological target: T1, AKT1/PPP1CA (Homo sapiens); experiment: Induction of PPI-mediated AKT dephosphorylation in human LnCaP cells assessed as increase in AKT T308 dephosphorylation at 10 uM incubated for 6 and 8 hrs by Western blot analysis; assay type: cell-based
[10] = biological target: T1, AKT1/PPP1CA (Homo sapiens); experiment: Induction of PPI-mediated AKT dephosphorylation in human LnCaP cells assessed as reduction in S6 phosphorylation at 10 uM incubated for 8 hrs by Western blot analysis; assay type: cell-based
[11] = biological target: T1, AKT1/PPP1CA (Homo sapiens); experiment: Induction of PPI-mediated AKT dephosphorylation in human PC3 cells assessed as increase in AKT T308 dephosphorylation at 10 uM incubated for 8 hrs by Western blot analysis; assay type: cell-based
[12] = biological target: T1, AKT1/PPP1CA (Homo sapiens); experiment: Induction of PPI-mediated AKT dephosphorylation in human PC3 cells assessed as increase in AKT S473 dephosphorylation at 10 uM incubated for 8 hrs by Western blot analysis; assay type: cell-based
[13] = biological target: T1, AKT1/PPP1CA (Homo sapiens); experiment: Induction of PPI-mediated AKT dephosphorylation in human LnCaP cells transfected with human Halo/FLAG-tagged PP1CA at 10 uM incubated for 8 hrs by Western blot analysis; assay type: cell-based
[14] = biological target: T1, AKT1/PPP1CA (Homo sapiens); experiment: Induction of PPI-mediated AKT dephosphorylation in human MCF7/neo HER2 cells transfected with human Halo/FLAG-tagged PP1CA at 10 uM incubated for 8 hrs by Western blot analysis; assay type: cell-based
[15] = biological target: T1, AKT1/PPP1CA (Homo sapiens); experiment: Induction of PPI-mediated AKT dephosphorylation in human PC3 cells transfected with human Halo/FLAG-tagged PP1CA at 10 uM incubated for 8 hrs by Western blot analysis; assay type: cell-based
[16] = biological target: EGFR/PPP1CA (Homo sapiens) (UniProt P00533+P62136); experiment: Induction of PPI-mediated EGFR dephosphorylation in human HCC827 cells transfected with human Halo/FLAG-tagged PP1CA assessed as increase in EGFR Y1068 dephosphorylation at 10 uM incubated for 8 hrs by Western blot analysis; assay type: cell-based
HCC827 = experiment: Induction of dephosphorylation of EGFR Y1068 in human HCC827 cells at 10 uM incubated for 8 hrs by Western blot analysis; assay type: functional, cell-based
[17] = biological target: T1, AKT1/PPP1CA (Homo sapiens); experiment: Induction of PPI-mediated AKT dephosphorylation in human LnCaP cells assessed as increase in AKT T308 dephosphorylation at 10 uM incubated for 8 hrs in presence of PPI siRNA by Western blot analysis; assay type: cell-based

T1 sequence (P31749 whole entry, looked up): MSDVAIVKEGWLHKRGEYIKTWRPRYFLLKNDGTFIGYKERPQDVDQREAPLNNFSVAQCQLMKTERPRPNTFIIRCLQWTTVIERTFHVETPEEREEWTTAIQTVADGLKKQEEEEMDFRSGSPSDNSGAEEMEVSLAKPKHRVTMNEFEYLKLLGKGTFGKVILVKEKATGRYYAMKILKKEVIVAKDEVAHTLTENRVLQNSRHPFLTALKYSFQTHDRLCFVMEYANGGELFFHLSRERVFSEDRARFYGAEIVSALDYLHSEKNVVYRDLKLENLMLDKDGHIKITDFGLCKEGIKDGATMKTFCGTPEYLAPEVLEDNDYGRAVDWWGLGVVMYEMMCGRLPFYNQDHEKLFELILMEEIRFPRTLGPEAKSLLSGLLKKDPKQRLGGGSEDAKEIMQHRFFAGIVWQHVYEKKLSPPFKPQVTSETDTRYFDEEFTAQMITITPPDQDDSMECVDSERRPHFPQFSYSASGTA
T1 sequence (P62136 whole entry, looked up): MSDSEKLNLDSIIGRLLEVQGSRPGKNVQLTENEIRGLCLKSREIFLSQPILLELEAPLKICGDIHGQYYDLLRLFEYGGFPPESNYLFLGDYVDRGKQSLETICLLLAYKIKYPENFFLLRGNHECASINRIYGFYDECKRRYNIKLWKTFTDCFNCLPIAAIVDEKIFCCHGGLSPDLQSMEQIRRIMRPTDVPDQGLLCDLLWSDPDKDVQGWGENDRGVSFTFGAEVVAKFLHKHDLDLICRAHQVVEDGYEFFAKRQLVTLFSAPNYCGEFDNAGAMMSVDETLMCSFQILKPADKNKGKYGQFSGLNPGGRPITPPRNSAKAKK
Chain of EGFR/PPP1CA (Homo sapiens) (P00533 whole entry, looked up): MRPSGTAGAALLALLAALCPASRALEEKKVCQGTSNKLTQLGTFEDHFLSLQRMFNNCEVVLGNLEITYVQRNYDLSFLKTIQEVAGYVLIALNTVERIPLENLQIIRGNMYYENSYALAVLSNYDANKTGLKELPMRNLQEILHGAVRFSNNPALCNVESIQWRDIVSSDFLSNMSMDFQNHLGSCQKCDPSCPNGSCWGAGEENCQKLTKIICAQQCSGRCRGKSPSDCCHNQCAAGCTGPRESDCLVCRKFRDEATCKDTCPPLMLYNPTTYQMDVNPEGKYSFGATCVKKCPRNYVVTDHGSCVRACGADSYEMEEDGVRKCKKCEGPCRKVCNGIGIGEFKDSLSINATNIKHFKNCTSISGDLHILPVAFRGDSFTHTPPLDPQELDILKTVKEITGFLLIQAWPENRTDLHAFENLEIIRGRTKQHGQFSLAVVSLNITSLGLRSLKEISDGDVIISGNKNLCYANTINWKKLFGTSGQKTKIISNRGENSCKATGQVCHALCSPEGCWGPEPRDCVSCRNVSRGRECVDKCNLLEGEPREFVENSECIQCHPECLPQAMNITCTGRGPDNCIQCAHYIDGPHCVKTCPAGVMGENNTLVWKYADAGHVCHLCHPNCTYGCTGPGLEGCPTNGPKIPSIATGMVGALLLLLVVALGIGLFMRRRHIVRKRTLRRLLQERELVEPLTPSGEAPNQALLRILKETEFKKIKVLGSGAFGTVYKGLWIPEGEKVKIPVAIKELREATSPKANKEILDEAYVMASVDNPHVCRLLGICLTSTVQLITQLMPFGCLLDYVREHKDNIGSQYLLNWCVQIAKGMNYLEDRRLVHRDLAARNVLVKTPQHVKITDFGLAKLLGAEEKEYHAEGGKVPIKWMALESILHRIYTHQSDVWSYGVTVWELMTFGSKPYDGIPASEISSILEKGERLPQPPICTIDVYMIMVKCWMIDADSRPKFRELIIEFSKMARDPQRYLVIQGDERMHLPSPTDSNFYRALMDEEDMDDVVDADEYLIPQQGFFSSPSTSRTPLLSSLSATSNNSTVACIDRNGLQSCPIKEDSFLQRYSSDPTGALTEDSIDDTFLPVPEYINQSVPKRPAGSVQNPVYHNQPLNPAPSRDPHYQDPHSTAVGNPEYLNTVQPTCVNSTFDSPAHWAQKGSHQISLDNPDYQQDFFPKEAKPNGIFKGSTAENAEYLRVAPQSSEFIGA
Chain of EGFR/PPP1CA (Homo sapiens) (P62136 whole entry, looked up): as the sequence (P62136 whole entry, looked up) above

Activity [3]: inactive
Activity [4]: inactive
Activity [5]: Active
Structure (SMILES): CC(=O)N[C@@H](CSCC(=O)NCCOCCOCCOCC(=O)N(C)CCN(C[C@@H](C(=O)N1CCN(c2ncnc3c2[C@H](C)C[C@H]3O)CC1)c1ccc(Cl)cc1)C(C)C)C(=O)N[C@@H](CCCNC(=N)N)C(=O)N[C@H](C(=O)N[C@@H](CO)C(=O)N[C@@H](C)C(=O)O)C(C)C

Activity [13]: Active
Activity [14]: Active
Activity [15]: Active
Structure (SMILES): O=C(CCC(=O)NCCOCCOCC(=O)Nc1ccc2[nH]c(=O)n(C3CCN(Cc4ccc(-c5nc6cc[nH]c(=O)c6cc5-c5ccccc5)cc4)CC3)c2c1)NCCOCCOCCCCCCCl

Activity [16]: Active
Structure (SMILES): C=CC(=O)Nc1cc(Nc2nccc(-c3cn(C)c4ccccc34)n2)c(OC)cc1N(C)CCN1CCN(C(=O)COCCOCCOCCCCCCCl)CC1
Activity (HCC827): Active

Continued, molecule first:

Structure (SMILES): CC[C@H](C)[C@H](NC(=O)[C@@H](NC(=O)[C@H](CCC(=O)O)NC(=O)[C@H](C)NC(=O)[C@H](C)NC(=O)[C@H](CCC(=O)O)NC(=O)[C@H](C)NC(=O)[C@H](Cc1ccccc1)NC(=O)[C@@H](NC(=O)[C@@H](NC(=O)[C@H](CCCNC(=N)N)NC(=O)[C@H](C)NC(=O)[C@H](CC(N)=O)NC(=O)[C@H](CCCCN)NC(=O)[C@H](CCCNC(=N)N)NC(=O)[C@H](CCCCN)NC(=O)[C@H](CCCNC(=N)N)NC(=O)[C@H](CCCCN)NC(=O)[C@@H]1CCCN1C(=O)[C@H](CCCNC(=N)N)NC(=O)[C@H](CSCC(=O)NCCOCCOCC(=O)Nc1ccc2[nH]c(=O)n(C3CCN(Cc4ccc(-c5nc6cc[nH]c(=O)c6cc5-c5ccccc5)cc4)CC3)c2c1)NC(C)=O)C(C)C)[C@@H](C)O)[C@@H](C)CC)C(=O)O (Ac-C(X1)RPKRKRKNARVTFAEAAEII-OH)
Activity [1]: Active
Activity [2]: inactive

Structure (SMILES): CC(=O)Nc1ccc2[nH]c(=O)n(C3CCN(Cc4ccc(-c5nc6cc[nH]c(=O)c6cc5-c5ccccc5)cc4)CC3)c2c1
Activity [6]: Dose-dependent effect

Structure (SMILES): CC(=O)N[C@@H](CSCC(=O)NCCOCCOCC(=O)Nc1ccc2[nH]c(=O)n(C3CCN(Cc4ccc(-c5nc6cc[nH]c(=O)c6cc5-c5ccccc5)cc4)CC3)c2c1)C(=O)N[C@@H](CCCNC(=N)N)C(=O)N[C@H](C(=O)N[C@@H](CO)C(=O)N[C@@H](C)C(=O)O)C(C)C
Activity [7]: inactive
Activity [8]: inactive
Activity [3]: inactive
Activity [9]: inactive
Activity [10]: Active
Activity [11]: inactive
Activity [12]: inactive
Activity [4]: inactive

Structure (SMILES): CC(=O)N[C@@H](CSCC(=O)NCCOCCOCC(=O)Nc1ccc2[nH]c(=O)n(C3CCN(Cc4ccc(-c5nc6cc[nH]c(=O)c6cc5-c5ccccc5)cc4)CC3)c2c1)C(=O)N[C@@H](CCCNC(=N)N)C(=O)N[C@H](C(=O)N[C@@H](CO)C(=O)N(C)[C@@H](Cc1ccccc1)C(=O)O)C(C)C
Activity [7]: Active
Activity [8]: Active
Activity [17]: inactive
Activity [3]: Active
Activity [9]: Active
Activity [10]: Active
Activity [11]: Active
Activity [12]: Active
Activity [4]: Active
